For 97 compounds, IC50 results are on record in PubChem BioAssay AID1850 (Southern Research Specialized Biocontainment Screening …, 2009).

Each structure is given as a SMILES string. Where “and” joins values, the source holds several entries; their conditions need not be identical. Identical values can stand only once. Bounds are passed on as bounds.

This experiment deals with Salmonella Typhi PhoP-promoter GFP reporter, fluorescence, 4 h. The experiment in a line: Inhibition of PhoP regulon, Salmonella typhi GFP reporter cells, confirmation, 4 h (AID 1850).
As to `O=C(Nc1cccnc1)c1cc(Br)c(Br)s1`, the IC50 (in general, the concentration at which inhibition is half-maximal) is 19.1 µM.

As for `OCCNc1nc(Nc2ccc(Br)cc2)nc2ccccc12`, the IC50 is 6.86 µM.

As to `Clc1ccc(OCCCNCc2ccccc2)c2ccccc12`, the IC50 is 19.2 µM. Take `CC1CCC(C(C)C)C(OC(=O)Cn2c(-c3ccc(Br)cc3)[n+](C)c3ccccc32)C1` (configuration not stated): the IC50 was 48.7 µM. With `C#CCOCCOCCOCCNc1nc(N2CCN(C(=O)CCCCCCCCCCNC(=O)Cn3cc(C[C@@H](C)O)nn3)CC2)nc(N2CCN(C(=O)CCCCCCCCCCNC(=O)[C@@H]([C@H](C)CC)n3cc(CCCCCN)nn3)CC2)n1` the figure was 142 µM; with `O=C(Cn1cncn1)N/N=C/c1ccccc1O`, 139 µM. To `Oc1c(CN2CCCCC2)cc(Br)c2cccnc12` belongs 17.8 µM; to `CCCCCCCNC(=O)C1(CC2CC(c3cccc(Br)c3)=NO2)CCNCC1` (configuration not stated), 53.7 µM. To `COc1ccc(Nc2nc(NCC3CCCO3)c3ccccc3n2)c(OC)c1` (configuration not stated) belongs 37 µM; to `CN1CCN(c2nc3cc(C(F)(F)F)ccc3n3cccc23)CC1`, 73.7 µM; to `O=C(C[n+]1cnn(CC(=O)c2ccc(Cl)cc2Cl)c1)c1ccc([N+](=O)[O-])cc1`, 37.4 µM. As to `NC1CCN(c2nc3c(cc2F)c(=O)c(C(=O)O)cn3-c2ccc(F)cc2F)C1` (configuration not stated), the IC50 is below 0.23 µM. To `O=c1[nH][nH]c(-c2ccccc2O)c1C(C[N+](=O)[O-])c1ccc(Br)cc1` (configuration not stated) belongs 91.5 µM; to `CN(C)CCCNc1c2ccccc2nc2ccccc12`, 34.8 µM; to `O=C1c2ccccc2C2=Nc3ccccc3SC(c3ccccc3F)C12` (configuration not stated), 3.8 µM. For the compound `CCOC(=O)N1CCC(=NNc2ccnc3cc(Cl)ccc23)CC1`, the IC50 is 35.3 µM. Take `Cc1cc(Cl)c(OCCCNCc2ccccc2)c(Br)c1`: the IC50 was 68.6 µM. To `Nc1ncncc1-c1ccc([N+](=O)[O-])cc1` belongs 80.1 µM; to `CN1CCN(c2ccc(NC(=O)c3ccc(-c4ccc(Br)cc4)o3)cc2)CC1`, 28.9 µM; to `CCCCOc1ccc(C(=O)NNC(=S)NC(=O)CC)cc1`, 37.1 µM. To `Nc1nc(N)c(Cc2ccc(Cl)cc2Cl)c(N)n1` belongs 94.9 µM.

As to `CC[n+]1c(/C=C/C=C/c2ccc(N(C)C)cc2)sc2ccccc21`, the concentration for half-maximal inhibition (IC50) is 39.2 µM. With `CN1CCN(C2Cc3ccc(Cl)cc3Sc3ccc(F)cc32)CC1` (configuration not stated) the figure was 37.8 µM; with `OCCNCc1cc(Br)ccc1OCc1ccc(Cl)cc1`, 86.8 µM; with `Fc1ccc(Nc2c3c(nc4ccccc24)CCC3)cc1`, 35.1 µM. To `O=C(Nc1cccc(Br)c1)c1cc2ccccc2o1` belongs 25.4 µM; to `O=C(/C=C/c1ccccc1)c1cc(Br)ccc(=O)c1O`, 24.5 µM. With `Cc1ccccc1C(=O)Nc1cccc(C(=O)N/N=C/c2cc(Cl)cc([N+](=O)[O-])c2O)c1` the figure was 47.6 µM; with `COc1ccc2[nH]c3c(C)c4ccncc4c(C)c3c2c1`, 20.5 µM; with `COc1cc(CNCCc2ccccc2)cc(Cl)c1OCc1ccccc1`, 35.9 µM.

With `O=C(CCN1CCN(c2ccccc2F)CC1)c1ccc(Br)cc1`, the IC50 was 39 µM.

For `O=c1[nH]c(=S)ccn1C1OC(CO)C(O)C1O` (configuration not stated), the IC50 is 28.6 µM.

Consider `CCCCCCCCCC[N+](C)(C)CC/C=C1/c2ccccc2Sc2ccc(Cl)cc21`, for which the IC50 was 13.2 µM. With `CC1CC(=O)c2c(cc3c(-c4c(O)cc(O)c5c(O)c6c(cc45)OC(C)CC6=O)c(O)cc(O)c3c2O)O1` (configuration not stated) the figure was 27.3 µM. With `O[C@@H](c1cc(C(F)(F)F)nc2c(C(F)(F)F)cccc12)[C@H]1CCCCN1` the figure was 40.3 µM. To `CC1CCC(C(C)C)C(OC(=O)Cn2c(COc3ccccc3)[n+](C)c3ccccc32)C1` (configuration not stated) belongs 35.1 µM. As to `CC(=O)Nc1ccc(S(=O)(=O)NNc2cccc(C)c2)cc1`, the 50% inhibitory concentration (IC50) was 39.2 µM.

In the case of `O=[N+]([O-])c1cccc2c(N3CCCC3)ccnc12`, the IC50 is 26.6 µM. Consider `O=C(Cc1ccccc1)N/N=C/c1cc(Br)cc(Cl)c1O`, for which the IC50 was 32.7 µM. To `CCCCCC(=O)NNC(=S)NC(C)=O` belongs 32.9 µM; to `CCOC(=O)N1CCN(C(=O)c2cn(CC)c3cc(N4CCN(C)CC4)c(F)cc3c2=O)CC1`, 3.42 µM. To `O=C(OCC(=O)N1CCOCC1)c1ccc[nH]c1=O` belongs 36.6 µM; to `Oc1c(C(Nc2ccccn2)c2cccnc2)cc(Cl)c2cccnc12` (configuration not stated), 36.5 µM. With `CC1CCC(C(C)C)C(OC(=O)C[n+]2cc(-c3ccc(Cl)cc3)n3c2CCC3)C1` (configuration not stated) the figure was 38 µM; with `O=C(NCCCN1CCN(c2ccc(F)cc2)CC1)Nc1ccc([N+](=O)[O-])cc1`, 76.1 µM. `Cc1ccc(S(=O)(=O)NNc2ccccc2)c(C)c1`: the IC50 is 38.3 µM.

With `O=C1OCCN1/N=C/c1ccc([N+](=O)[O-])o1`, the IC50 was 33.1 µM.

Turning to `C#CCOCCOCCOCCNc1nc(N2CCN(C(=O)[C@H](Cc3cc4ccccc4[nH]3)n3cc([C@@H](N)C(C)CC)nn3)CC2)nc(N2CCN(C(=O)[C@H](Cc3cc4ccccc4[nH]3)n3cc([C@@H](N)CC(C)C)nn3)CC2)n1` (some centres not stated), the IC50 was 70 µM. To `C#CCOCCOCCOCCNc1nc(N2CCN(C(=O)CCCCCCCCCCNC(=O)[C@H]([C@@H](C)CC)n3cc(CCCCCN)nn3)CC2)nc(N2CCN(C(=O)CCCCCCCCCCNC(=O)[C@H]([C@@H](C)CC)n3cc(CCCCN=C(N)N)nn3)CC2)n1` belongs 20.1 µM; to `Cc1ccc(C(=O)N/C(=C\c2ccc(-c3ccc(Br)cc3)o2)C(=O)NCCCN(C)C)cc1`, 37.1 µM.

As to `COc1ccc(CNCCC(c2ccccc2)c2ccc3c(c2)OCO3)cc1` (configuration not stated), the IC50 was 78.7 µM. Consider `C/C(=N\NC(=O)c1ccc(Cl)cc1)c1ccccn1`, for which the IC50 was 33.4 µM. To `C[C@H]1O[C@@H](n2cc(F)c(=O)[nH]c2=O)[C@H](O)[C@@H]1O` belongs 32.2 µM; to `Cc1ccc(-n2c(-c3ccc(Br)cc3)c[n+]3c2CCc2ccc4cccnc4c2-3)cc1`, 62.2 µM.

On to `CC(=O)Nc1cccc(NC(=O)Nc2ccc(F)cc2F)c1`, for which the IC50 is 40.8 µM. With `COc1ccc(CNCC(O)COc2ccc(C(C)(C)c3ccccc3)cc2)cc1` (configuration not stated) the figure was 20.9 µM; with `CCOC(=O)Cn1c(=N)n(CCOc2ccc3ccccc3c2)c2ccccc21`, 53.1 µM. With `Nc1nc2ccccc2n1CCOc1ccccc1Cl` the figure was 73.3 µM; with `Cc1cccc(Nc2nc(NCc3ccco3)c3ccccc3n2)c1`, 4.95 µM; with `c1cc2c(cc1C1CCCCC1)c1c3n2CCCNC3CCC1` (configuration not stated), 31.2 µM.

Consider `Cc1ccc(C(=O)NNC(=S)NC(=O)c2ccccc2)cc1`, for which the IC50 is 62.6 µM.

For the compound `Cc1cc(C)n(/N=C/c2cc([N+](=O)[O-])ccc2O)c(=O)c1`, the IC50 is 92 µM. Regarding `O=C(CSc1nnc(-c2ccccc2)n1-c1ccc(Cl)cc1)NC1CCS(=O)(=O)C1` (configuration not stated), the IC50 was 73.8 µM. `CC(C)(C)c1ccc(OCCCNC2CCCC2)cc1`: the IC50 was 83.2 µM. With `Cc1ccc(C(=O)NCCN2C3=NC[C@@H](Cc4ccccc4)N3C[C@H]2Cc2ccc(O)cc2)cc1Br` the figure was 47.2 µM; with `Fc1ccc(CCNCc2ccccc2Cl)cc1`, 73.4 µM; with `O=C(C[n+]1cc(-c2ccc(Cl)cc2)n2c1CCC2)N1c2ccccc2Sc2ccccc21`, 81.5 µM. With `Cc1ccc(C(=O)N/C(=C\c2ccc(-c3ccc(Cl)cc3)o2)C(=O)NCCCN(C)C)cc1` the figure was 37.6 µM.

On to `CCOC(=O)N/N=C\c1ccc([N+](=O)[O-])o1`, for which the IC50 is 33.1 µM. With `c1ccc(-c2nc3ccccc3[nH]2)cc1`, the IC50 was 48 µM. In the case of `Nc1cccc2nc3ccccc3cc12`, the IC50 is 35.7 µM. To `CCCCCOc1ccc(CSC2=NCCN2)cc1[N+](=O)[O-]` belongs 36.8 µM. With `Cc1ccc(Cn2c(=N)n(CC(O)COc3ccccc3)c3ccccc32)cc1` (configuration not stated), the IC50 was 52.3 µM. To `COC(=O)N/N=C/c1c[n+]([O-])c2ccccc2[n+]1[O-]` belongs 49.2 µM; to `O=C(NC(=S)NNC(=O)c1ccco1)c1ccc(Br)cc1`, 88.4 µM; to `CCCCCCCCCCn1c2c(c(=N)c3c1CCC3)CCC2`, 14.7 µM. With `CCc1cccc2c(C(=O)COC(=O)c3ccc([N+](=O)[O-])s3)c[nH]c12` the figure was 18.8 µM; with `O=C(Nc1nnc(-c2cccs2)o1)c1cccc(F)c1`, 34.1 µM. Take `O=[N+]([O-])c1cccc(NNS(=O)(=O)c2ccccc2F)c1`: the IC50 was 6.05 µM. With `Cc1ccc(-c2c[n+](CC(=O)Nc3nc(-c4ccccc4)cs3)c3n2CCC3)cc1` the figure was 22.1 µM; with `COc1c(N2CCNC(C)C2)c(F)cc2c(=O)c(C(=O)O)cn(C3CC3)c12` (configuration not stated), 0.29 µM; with `CCCCCCCNC(=O)C1(CC2CC(c3ccc(Cl)cc3)=NO2)CCNCC1` (configuration not stated), 37.4 µM. With `S=C(NCc1ccc(Cl)cc1)Nc1ccncc1` the figure was 19.1 µM; with `C[N+]12CN3CN(CN(C3)C1)C2`, 86.3 µM. With `CCCCCCCCCCOC(=O)Cn1c(COc2ccc(OC)cc2)[n+](C)c2ccccc21` the figure was 22.7 µM and 14.4 µM.

Regarding `COC(=O)c1sccc1NC(=S)NCc1ccc(Cl)cc1`, the IC50 is 36.9 µM.

With `COc1ccc(C2NCCc3c2[nH]c2ccccc32)cc1COc1ccc(F)cc1` (configuration not stated), the IC50 is 39.1 µM.

As for `Cc1nc(N)c(Cc2ccc(Cl)cc2Cl)c(N)n1`, the IC50 was 44.2 µM. To `O=C(CCc1ccccc1)NNC(=S)NC(=O)c1ccccc1` belongs 118 µM; to `Fc1ccc(Nc2ccnc(Nc3ccc(F)cc3)n2)cc1`, 20 µM.

For the compound `O=C(CNC(=O)c1ccccc1)N/N=C/c1ccc([N+](=O)[O-])s1`, the IC50 is 19.7 µM. With `CCCCOc1ccc(Br)cc1CSC(=N)N` the figure was 35 µM.

As for `Nc1nc2ccccc2n1Cc1ccc(Cl)c(Cl)c1`, the half-inhibitory concentration (IC50) is 79.7 µM. Regarding `COc1cc(CNCCO)cc(Cl)c1OCc1ccc(Cl)cc1Cl`, the IC50 is 38 µM.

For the compound `COc1ccc(NC(=O)c2cc(Br)c(Br)s2)cn1`, the IC50 was 10.3 µM. With `C#CCOCCOCCOCCNc1nc(N2CCN(C(=O)C(Cc3ccc(O)cc3)n3cc(C(N)CC(C)C)nn3)CC2)nc(N2CCN(C(=O)C(Cc3cc4ccccc4[nH]3)n3cc(C(N)Cc4ccc(O)cc4)nn3)CC2)n1` (configuration not stated) the figure was 130 µM; with `CCc1ccc(NC(=O)Nc2ccncc2)cc1`, 71.3 µM.
